# Laboratory results: patent publication US20260015350A1, “AZAQUINAZOLINE PAN-KRAS INHIBITORS” (Mirati Therapeutics, Inc., priority 2022, published 2026)
# Experiments:
# [1] = test system: KRas-mediated phosphorylation of ERK in H358 cells; assay: Inhibition of KRas-mediated phosphorylation of ERK (Cisbio HTRF pERK), H358 cells; assay type: cell-based; details: single point, 100 nM compound, 3 hrs; for inhibition at 0.1 µM: Homo sapiens, NCI-H358, 3 h
# Method: (§1) Inhibition of KRas Phosphorylation of ERK (HTRF) by Exemplary Compounds of Formula (I) Cisbio HTRF Advanced PERK Assay Catalog #64[…] […] Add 10 mL of media to stop trypsinizing. Pipette the cells into a conical bottom 50 mL centrifuge tube and centrifuge 5 min×1000 rpm. […] Re-suspend the cell pellet in media, take a cell count, and then adjust the cell density using fresh media. […] Seed 6,000 cells into cell culture plate with 50 μL media. […] Use Tecan to complete the compound addition. Compounds start from 10 uM top, 3-fold dilution, and 10 doses. The final DMSO concentration is 0.8%. Dispensed 0.2 uM Trametinib as Min control. […] Incubate cell plate for 3 hrs in the incubator. […] Dilute 1 volume of 4× lysis buffer with 3 volumes of deionized water. […] Keep lysis buffer on the ice. […] At the end of the compound treatment, flick-off the media. […] Add 35 μL of lysis buffer per well using a Multidrop Combi. Then place on a plate agitator shaking at 300 rpm at 4° C. for 40 mins. […] Make up the HTRF antibody buffer. For each assay plate, mix 50 μL of d2-conjugate antibody with 950 μL of detection buffer. Similarly, mix 50 μL of Cryptate antibody with 950 μL of detection buffer. Then mix the two diluted antibodies together. […] Dispense 3.4 μL the antibody buffer to wells of an empty assay plate. Seal the plate and centrifuge plate 30 sec×1000 rpm. […] At the end of the 4° C. lysis, centrifuge the lysate plates 3 mins×1500 rpm. […] Use the Bravo to transfer 13.6 μL of lysate from cell culture plate to assay plate. Then incubate assay plate for 2 hrs at room temperature. 8. At the end of incubation, read plate on the Envision after centrifuging plate 30 sec×1000 rpm.
# [2] = test system: KRas-mediated phosphorylation of ERK in A549 cells; assay: Inhibition of KRas-mediated phosphorylation of ERK (Cisbio HTRF pERK), A549 cells; assay type: cell-based; details: single point, 100 nM compound, 3 hrs; for inhibition at 0.1 µM: Homo sapiens, A549, 3 h
# Method: as §1
# [3] = test system: KRas-mediated phosphorylation of ERK in AsPC-1 cells; assay: Inhibition of KRas-mediated phosphorylation of ERK (Cisbio HTRF pERK), AsPC-1 cells; assay type: cell-based; details: for IC50: HTRF pERK
# Outline: (§2)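 Following a 3-hr exposure of cells to serially diluted compound (from 10 uM, 3-fold, 10 doses), cold lysis for 40 mins preceded a 2-hr room-temperature HTRF immunoassay for phosphorylated ERK.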
# KRas^G12D = target: T1, KRas^G12D (Homo sapiens, UniProt P01116, G12D); assay: KRas binding assay (TR-FRET tracer displacement), KRas G12D
# T1 construct: Biotinylated KRas (corresponding to amino acids 1-169, produced at Accelegan Inc.); biotin (biotinylated); purchased Accelegan Inc
# T1 sequence (P01116 1-169 isoform P01116-2 G12D): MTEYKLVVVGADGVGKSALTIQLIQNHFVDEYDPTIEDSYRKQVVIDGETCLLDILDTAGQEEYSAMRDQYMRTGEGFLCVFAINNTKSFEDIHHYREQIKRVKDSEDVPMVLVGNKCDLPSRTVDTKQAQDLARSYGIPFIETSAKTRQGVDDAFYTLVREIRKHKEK
# [4] = test system: KRas-mediated phosphorylation of ERK in H460 cells; assay: Inhibition of KRas-mediated phosphorylation of ERK (Cisbio HTRF pERK), H460 cells; assay type: cell-based; details: single point, 100 nM compound, 3 hrs; for inhibition at 0.1 µM: Homo sapiens, NCI-H460, 3 h
# Method: as §1
# [5] = test system: KRas-mediated phosphorylation of ERK in HCT116 cells; assay: Inhibition of KRas-mediated phosphorylation of ERK (Cisbio HTRF pERK), HCT116 cells; assay type: cell-based; details: single point, 100 nM compound, 3 hrs; for inhibition at 0.1 µM: Homo sapiens, HCT-116, 3 h
# Method: as §1
# KRas^G12V = target: T2, KRas^G12V (Homo sapiens, UniProt P01116, G12V); assay: KRas binding assay (TR-FRET tracer displacement), KRas G12V
# T2 construct: Biotinylated KRas (corresponding to amino acids 1-169, produced at Accelegan Inc.); biotin (biotinylated); purchased Accelegan Inc
# T2 sequence (P01116 1-169 isoform P01116-2 G12V): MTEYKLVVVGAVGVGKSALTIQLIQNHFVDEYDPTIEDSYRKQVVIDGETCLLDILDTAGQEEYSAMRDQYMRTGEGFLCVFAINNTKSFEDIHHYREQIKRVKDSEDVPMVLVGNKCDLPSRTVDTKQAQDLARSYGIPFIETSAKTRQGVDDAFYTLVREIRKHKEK
# [6] = test system: KRas-mediated phosphorylation of ERK in H727 cells; assay: Inhibition of KRas-mediated phosphorylation of ERK (Cisbio HTRF pERK), H727 cells; assay type: cell-based; details: for IC50: HTRF pERK
# Outline: as §2
# KRas^G12R = target: T3, KRas^G12R (Homo sapiens, UniProt P01116, G12R); assay: KRas binding assay (TR-FRET tracer displacement), KRas G12R
# T3 construct: Biotinylated KRas (corresponding to amino acids 1-169, produced at Accelegan Inc.); biotin (biotinylated); purchased Accelegan Inc
# T3 sequence (P01116 1-169 isoform P01116-2 G12R): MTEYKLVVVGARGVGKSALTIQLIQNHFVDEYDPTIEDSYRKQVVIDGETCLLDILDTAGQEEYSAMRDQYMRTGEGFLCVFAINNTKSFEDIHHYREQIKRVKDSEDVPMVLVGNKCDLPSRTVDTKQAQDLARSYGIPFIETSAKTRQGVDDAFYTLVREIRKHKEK
# [7] = Homo sapiens, ASPC1, AsPC-1 cells
# [8] = Homo sapiens, NCI-H727, H727 cells
IC50 ([3]; AsPC-1 cells) [nM],IC50 (KRas^G12D) [nM],IC50 (KRas^G12V) [nM],IC50 ([6]; H727 cells) [nM],IC50 (KRas^G12R) [nM],"IC50 [3, 7] [nM]","IC50 [6, 8] [nM]",SMILES,"Inhibition (HTRF % at 100 nM) of KRas-mediated Phosphorylation of ERK, H358 ([1]; 0.1 µM) [%]","Inhibition (HTRF % at 100 nM) of KRas-mediated Phosphorylation of ERK, A549 ([2]; 0.1 µM) [%]","Inhibition (HTRF % at 100 nM) of KRas-mediated Phosphorylation of ERK, AsPC-1 ([3]; single point, 100 nM compound, 3 hrs, AsPC-1 cells, 0.1 µM) [%]","Inhibition (HTRF % at 100 nM) of KRas-mediated Phosphorylation of ERK, H460 ([4]; 0.1 µM) [%]","Inhibition (HTRF % at 100 nM) of KRas-mediated Phosphorylation of ERK, HCT116 ([5]; 0.1 µM) [%]","Inhibition (HTRF % at 100 nM) of KRas-mediated Phosphorylation of ERK, H727 ([6]; single point, 100 nM compound, 3 hrs, H727 cells, 0.1 µM) [%]",inhibition at 0.1 µM [1] [%],inhibition at 0.1 µM [2] [%],inhibition at 0.1 µM [4] [%],inhibition at 0.1 µM [5] [%],"inhibition at 0.1 µM ([3]; Homo sapiens, ASPC1, 3 h, single point, 100 nM compound, 3 hrs, AsPC-1 cells) [%]","inhibition at 0.1 µM ([6]; Homo sapiens, NCI-H727, 3 h, single point, 100 nM compound, 3 hrs, H727 cells) [%]"
3100,262,85,724,182,,,"CCc1c(F)ccc2cc(O)cc(-c3ncc4c(N5CC6CCC(C5)C6C#N)nc(OC[C@@]56CCCN5C[C@H](F)C6)nc4c3F)c12 (single isomer, unassigned) [Example 560]",4,15,5,10,12,8,,,,,,
,106,17,,38,985,605,"CCc1c(F)ccc2cc(O)cc(-c3ncc4c(NCc5cc(C(=O)N(C)C)nn5C5CCS(=O)(=O)C5)nc(OC[C@@]56CCCN5C[C@H](F)C6)nc4c3F)c12 (single isomer, unassigned) [Example 694]",,,,,,,9,-8,-3,-10,,
,59,66,,91,2770,4390,"CCc1c(F)ccc2cc(O)cc(-c3ncc4c(N5CCC[C@@](C)(O)C5)nc(N5CC(C)(N)C5)nc4c3F)c12 [Example 530, (R)-1-(2-(3-amino-3-methylazetidin-1-yl)-7-(8-ethyl-7-fluoro-3-hydroxynaphthalen-1-yl)-8-fluoropyrido[4,3-d]pyrimidin-4-yl)-3-methylpiperidin-3-ol]",,,,,,,6,15,18,-6,,
,72,105,,119,1500,1970,"CCc1c(F)ccc2cc(O)cc(-c3ncc4c(N5CCC[C@@](C)(O)C5)nc(N5CC(N(C)C)C5)nc4c3F)c12 [Example 533, (R)-1-(2-(3-(dimethylamino)azetidin-1-yl)-7-(8-ethyl-7-fluoro-3-hydroxynaphthalen-1-yl)-8-fluoropyrido[4,3-d]pyrimidin-4-yl)-3-methylpiperidin-3-ol]",,,,,,,-7,27,8,8,,
,7,5,,2,5810,1620,"CCc1c(F)ccc2cc(O)cc(-c3ncc4c(N5CCCC6(C5)NC(=O)NC6=O)nc(N5CC(N(C)C)C5)nc4c3F)c12 (stereo not shown) [Example 534, 7-(2-(3-(dimethylamino)azetidin-1-yl)-7-(8-ethyl-7-fluoro-3-hydroxynaphthalen-1-yl)-8-fluoropyrido[4,3-d]pyrimidin-4-yl)-1,3,7-triazaspiro[4.5]decane-2,4-dione]",,,,,,,-9,-19,-6,-6,,
,17,27,,44,1620,2190,"CCc1c(F)ccc2cc(O)cc(-c3ncc4c(N5CCCn6nc(C(=O)N(C)C)cc6C5)nc(N5CC(N(C)C)C5)nc4c3F)c12 [Example 535, 5-(2-(3-(dimethylamino)azetidin-1-yl)-7-(8-ethyl-7-fluoro-3-hydroxynaphthalen-1-yl)-8-fluoropyrido[4,3-d]pyrimidin-4-yl)-N,N-dimethyl-5,6,7,8-tetrahydro-4H-pyrazolo[1,5-a][1,4]diazepine-2-carboxamide]",,,,,,,-8,-9,16,-3,,
,864,77,,79,5160,1630,"C#CC1(F)CCN(c2nc(OC[C@@]34CCCN3C[C@H](F)C4)nc3c(F)c(-c4cc(O)cc5ccc(F)c(CC)c45)ncc23)CC1 [Example 553, 5-ethyl-4-(4-(4-ethynyl-4-fluoropiperidin-1-yl)-8-fluoro-2-(((2R,7aS)-2-fluorotetrahydro-1H-pyrrolizin-7a(5H)-yl)methoxy)pyrido[4,3-d]pyrimidin-7-yl)-6-fluoronaphthalen-2-ol]",,,,,,,3,0,0,6,,
,3,11,,10,130,328,"CCc1c(F)ccc2cc(O)cc(-c3ncc4c(N5CCCc6ncncc6C5)nc(OC[C@@]56CCCN5C[C@H](F)C6)nc4c3F)c12 [Example 582, 4-(4-(8,9-dihydro-5H-pyrimido[5,4-c]azepin-6(7H)-yl)-8-fluoro-2-(((2R,7aS)-2-fluorohexahydro-1H-pyrrolizin-7a-yl)methoxy)pyrido[4,3-d]pyrimidin-7-yl)-5-ethyl-6-fluoronaphthalen-2-ol]",,,,,,,15,32,3,13,,
,< 2,6,,12,231,981,"CCc1c(F)ccc2cc(O)cc(-c3ncc4c(N5CCCc6nnncc6C5)nc(OC[C@@]56CCCN5C[C@H](F)C6)nc4c3F)c12 [Example 584, 4-(4-(8,9-dihydro-5H-[1,2,3]triazino[5,4-c]azepin-6(7H)-yl)-8-fluoro-2-(((2R,7aS)-2-fluorohexahydro-1H-pyrrolizin-7a-yl)methoxy)pyrido[4,3-d]pyrimidin-7-yl)-5-ethyl-6-fluoronaphthalen-2-ol]",,,,,,,15,14,11,3,-20,-18
,194,38,,85,1570,1190,"CCc1c(F)ccc2cc(O)cc(-c3ncc4c(N5CCCC(C6CCOC6)C5)nc(OC[C@@]56CCCN5C[C@H](F)C6)nc4c3F)c12 (stereo partly drawn) [Example 595, 5-ethyl-6-fluoro-4-(8-fluoro-2-(((2R,7aS)-2-fluorohexahydro-1H-pyrrolizin-7a-yl)methoxy)-4-(3-(tetrahydrofuran-3-yl)piperidin-1-yl)pyrido[4,3-d]pyrimidin-7-yl)naphthalen-2-ol]",,,,,,,-1,3,12,-9,,
,119,71,,47,1560,946,"CCc1c(F)ccc2cc(O)cc(-c3ncc4c(N5CCC(C)(O)C(F)(F)CC5)nc(OC[C@@]56CCCN5C[C@H](F)C6)nc4c3F)c12 (stereo partly drawn) [Example 605, 1-(7-(8-ethyl-7-fluoro-3-hydroxynaphthalen-1-yl)-8-fluoro-2-(((2R,7aS)-2-fluorotetrahydro-1H-pyrrolizin-7a(5H)-yl)methoxy)pyrido[4,3-d]pyrimidin-4-yl)-5,5-difluoro-4-methylazepan-4-ol]",,,,,,,3,20,7,-12,,
